{"source": "patent US8765791B2", "about": "“Method of treating cancer using a neuropeptide Y 5R (NP Y5R) antagonist” (University Health Network, priority 2008, dated 2014)", "key": {"Rat glioma cells": {"tested_on": "Rat glioma cells", "assay": "brain cancer xenograft model (Example 7)", "assay_type": "in vivo, CB17-SCID mice", "description": "(§1) Rat glioma cells (2×10^6) were implanted in CB17-SCID mice. The mice were treated with MK0557 at 30 mg/kg, or vehicle (15% of 0.5%) CMC (carboxymethylcelulose) (low viscosity) and 85% of 0.2% Tween80 in water) intraperitoneally daily for the first week followed by once every two days injections."}, "[1]": {"settings": "cited from earlier work"}, "[2]": {"tested_on": "Breast cancer cells, MDA MB 468", "assay": "breast cancer xenograft model, MK0557 and 5-FU (Example 15)", "assay_type": "in vivo, CB17-SCID", "settings": "MK0557 alone, 30 mg/kg ip. 3/week", "description": "Breast cancer cells, MDA MB 468, were injected into CB17-SCID. The treatments were started day 14 after tumor implantation. […] Tumor volume and tumor growth were monitored during the experiment."}, "HUV-EC-C cells": {"tested_on": "HUV-EC-C cells", "assay": "in vitro angiogenesis assay, tube formation", "assay_type": "cell-based", "settings": "HUV-EC-C on ECMatrix, after 5 hours", "description": "HUV-EC-C cells were purchased from ATCC and routinely cultured in Ham's F12K medium supplemented with 10% FBS, 2 mM L-glutamine, 1.5 g/L sodium bicarbonate, 0.1 mg/ml heparin and 0.03 mg/ml endothelial cell growth supplement (ECGS).\nAn In Vitro Angiogenesis Assay kit from Chemicon (Cat#ECL625) was used for testing HUV-EC-C tube formation. Cells were incubated on ECMatrix coated 96-well plate at 8×10^3 cells per well in growth medium with or without NPY, its antagonist MK0557, or DMSO as a control. Inhibition of in vitro endothelial tubule formation by MK0557 was quantitated from photographs after 5 hours by counting the number of tubes in the well (FIG. 7)."}, "human NPY1R": {"molecular_target": "T1, human NPY1R (Homo sapiens, UniProt P25929)", "T1 sequence (P25929 1-384)": "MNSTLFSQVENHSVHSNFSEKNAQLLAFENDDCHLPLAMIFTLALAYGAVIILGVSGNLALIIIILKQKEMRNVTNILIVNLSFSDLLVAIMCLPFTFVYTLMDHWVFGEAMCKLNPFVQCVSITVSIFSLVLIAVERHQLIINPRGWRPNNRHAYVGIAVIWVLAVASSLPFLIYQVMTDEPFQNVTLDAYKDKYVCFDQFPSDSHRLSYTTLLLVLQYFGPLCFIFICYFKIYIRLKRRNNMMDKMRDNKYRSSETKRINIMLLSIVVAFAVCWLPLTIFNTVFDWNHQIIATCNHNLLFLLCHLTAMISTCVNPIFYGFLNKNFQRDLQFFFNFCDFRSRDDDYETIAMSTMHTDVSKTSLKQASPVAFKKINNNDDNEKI", "settings": "at a concentration of 10 μM; cited from earlier work"}, "[3]": {"tested_on": "Breast cancer cells, MDA MB 468", "assay": "breast cancer xenograft model (Example 11)", "assay_type": "in vivo, SCID mice", "settings": "30 mg/kg i.p. 3/week, approximately 4 weeks", "description": "Breast cancer cells, MDA MB 468 (12 million), were injected subcutaneously (s.c.) on the neck of SCID mice (CB17, female, 4-6 weeks old) (Charles River, Wilmington, Mass.). The mice were divided into four groups, 5 mice for each group. The treatments were started when the tumor volume reached about 100 mm^3, day 22 after tumor implantation. […] The tumor sizes were monitored every 3 or 4 days. […] (FIG. 12)"}, "MCF-7 cells": {"tested_on": "MCF-7 cells", "assay": "breast cancer xenograft model (Example 4)", "assay_type": "in vivo, SCID mice", "description": "MCF-7 cells were dissociated from flask surfaces then counted and spun down with a final concentration of 10×10^7 cells/ml produced. A total of 20 SCID mice, aged 6-8 weeks (CRL-CB17), were injected with 10×10^6 cells into lower mammary fat pads. After 3 weeks, all mice were inspected for tumor establishment and were measured for size (FIG. 5).\nFor this study, a total of 15 mice were selected from a group of 20, which had similar tumor sizes (3×3). Subsequently, these 15 mice were divided into three groups of 5. The first group, the control group, received the vehicle only (20% ETOH and 80% PEG 400); the second group received a dosage of 30 mg/kg of MK0557; and the third group received a dosage of 15 mg/kg of MK0557.\nAll groups were injected everyday via IP for the first five days, followed by injections every other day."}, "Lung cancer cells, H358": {"tested_on": "Lung cancer cells, H358", "assay": "lung cancer xenograft model (Example 9)", "assay_type": "in vivo, CB17-SCID mice", "description": "as §1, with “Lung cancer cells, H358, (1×10^6)” for “Rat glioma cells (2×10^6)”, “Ten days post-implantation, the” for “The”, “mg/kg” for “mg/kg,”"}, "mouse NPY6R": {"molecular_target": "T2, mouse NPY6R (Mus musculus, UniProt Q61212)", "T2 sequence (Q61212 1-371)": "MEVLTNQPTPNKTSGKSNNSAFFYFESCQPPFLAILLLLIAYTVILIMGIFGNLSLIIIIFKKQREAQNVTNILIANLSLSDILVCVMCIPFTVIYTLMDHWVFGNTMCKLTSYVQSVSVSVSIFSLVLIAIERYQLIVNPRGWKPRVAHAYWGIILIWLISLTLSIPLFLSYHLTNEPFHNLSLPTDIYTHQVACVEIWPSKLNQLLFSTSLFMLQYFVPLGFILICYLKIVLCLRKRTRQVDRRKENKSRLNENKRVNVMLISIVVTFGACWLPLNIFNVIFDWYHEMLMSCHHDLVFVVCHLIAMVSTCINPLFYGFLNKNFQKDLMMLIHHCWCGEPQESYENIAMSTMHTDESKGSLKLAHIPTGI", "settings": "at a concentration of 10 μM; cited from earlier work"}, "[4]": {"tested_on": "Ovarian cancer cells SKOV-3", "assay": "ovarian cancer xenograft model (Example 13)", "assay_type": "in vivo, SCID mice", "settings": "30 mg/kg i.p. 3/week", "excerpt": "Ovarian cancer cells SKOV-3 (5 millions) were implanted s.c. on the right flank of SCID mice (CB17, female, 4-6 weeks) (Charles River, Wilmington, Mass.). The mice were divided into four groups, 5 mice for each group. The treatments were started when the tumor volume reached at around 60 mm3, day 8 after tumor implantation. […] The tumor growth was monitored for the duration of the experiment. […] (FIG. 14)"}, "[5]": {"settings": "30 mg/kg intraperitoneally daily first week then once every two days"}}}
{"smiles": "O=C1O[C@]2(CC[C@H](C(=O)Nc3ccn(-c4ccccc4F)n3)CC2)c2cnccc21", "note": "[MK-0557, trans-N-[1-(2-fluorophenyl)-3-pyrazolyl]-3-oxospiro[6 azaisobenzofuran-1(3H), 1′-cyclohexane]-4′carboxamide]", "values": [{"measurement": "effect on mouse body weights", "setting": "Rat glioma cells; 30 mg/kg intraperitoneally", "result": "no obvious effect"}, {"measurement": "tumor growth", "setting": "Rat glioma cells; [5]", "result": "Tumor growth was inhibited"}, {"measurement": "reduction in weight regain", "setting": "[1]; following very-low-calorie-diet induced weight loss", "result": "did not result in a clinically meaningful reduction in weight regain"}, {"measurement": "weight loss", "setting": "[1]; overweight or obese adults, 1 mg/day, 5 mg/day or 25 mg/day", "result": "did not induce clinically meaningful weight loss"}, {"measurement": "Mean Tumor Volume", "setting": "[2]", "result": "392.73±80.63", "unit": "mm^3"}, {"measurement": "Mean Tumor Weight", "setting": "[2]", "result": "0.1582 ± 0.0345", "unit": "g"}, {"measurement": "inhibition rate (tumor volume)", "setting": "[2]; versus vehicle", "result": 38.85, "unit": "%"}, {"measurement": "inhibition rate (tumor weight)", "setting": "[2]; versus vehicle", "result": 38.59, "unit": "%"}, {"measurement": "tube formation", "setting": "HUV-EC-C cells", "result": "inhibits tube formation"}, {"measurement": "binding to human NPY1R", "setting": "human NPY1R", "result": "does not significantly bind"}, {"measurement": "tumor growth", "setting": "[3]", "result": "inhibited tumor growth"}, {"measurement": "mice tumor free", "setting": "MCF-7 cells; 30 mg/kg IP, third week", "result": "4 out of 5"}, {"measurement": "tumor growth", "setting": "MCF-7 cells; MCF-7 xenograft, 30 mg/kg and 15 mg/kg IP", "result": "dose-dependent inhibition of tumor growth"}, {"measurement": "tumor size in treated groups", "setting": "MCF-7 cells; second week, 30 mg/kg and 15 mg/kg IP", "result": "tumor shrinkage was noticed"}, {"measurement": "effect on mouse body weights", "setting": "Lung cancer cells, H358; 30 mg/kg intraperitoneally", "result": "no obvious effect"}, {"measurement": "tumor growth", "setting": "Lung cancer cells, H358; [5]", "result": "Tumor growth was inhibited"}, {"measurement": "binding to mouse NPY6R", "setting": "mouse NPY6R", "result": "does not significantly bind"}, {"measurement": "tumor growth", "setting": "[4]", "result": "inhibited tumor growth"}]}
